This experiment addresses human NaV 1.7 (Homo sapiens, UniProt Q15858). Kind of experiment: E-VIPR optical membrane potential assay with electrical stimulation. As to conditions: sodium channel inhibition; read-out: Binned Activity Data (IC50). Format: cell-based. The method, boiled down: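 Membrane-potential read-out: background-subtracted 460 nm/580 nm ratio during a 9 s current-controlled stimulus, 400 Hz scan. Before stimulation, NaV1.7-HEK cells carried coumarin/oxonol dye and compound (final DMSO 0.625%) for 20–35 min at room temperature; tetracaine 125 μM served as positive control.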

70 compounds from patent US9365588B2, “Benzoxazines as modulators of ion channels” (Vertex Pharmaceuticals Incorporated, priority 2011, dated 2016) can be followed below.

Some results are limits rather than exact numbers.

human NaV 1.7, sequence (Q15858 whole entry): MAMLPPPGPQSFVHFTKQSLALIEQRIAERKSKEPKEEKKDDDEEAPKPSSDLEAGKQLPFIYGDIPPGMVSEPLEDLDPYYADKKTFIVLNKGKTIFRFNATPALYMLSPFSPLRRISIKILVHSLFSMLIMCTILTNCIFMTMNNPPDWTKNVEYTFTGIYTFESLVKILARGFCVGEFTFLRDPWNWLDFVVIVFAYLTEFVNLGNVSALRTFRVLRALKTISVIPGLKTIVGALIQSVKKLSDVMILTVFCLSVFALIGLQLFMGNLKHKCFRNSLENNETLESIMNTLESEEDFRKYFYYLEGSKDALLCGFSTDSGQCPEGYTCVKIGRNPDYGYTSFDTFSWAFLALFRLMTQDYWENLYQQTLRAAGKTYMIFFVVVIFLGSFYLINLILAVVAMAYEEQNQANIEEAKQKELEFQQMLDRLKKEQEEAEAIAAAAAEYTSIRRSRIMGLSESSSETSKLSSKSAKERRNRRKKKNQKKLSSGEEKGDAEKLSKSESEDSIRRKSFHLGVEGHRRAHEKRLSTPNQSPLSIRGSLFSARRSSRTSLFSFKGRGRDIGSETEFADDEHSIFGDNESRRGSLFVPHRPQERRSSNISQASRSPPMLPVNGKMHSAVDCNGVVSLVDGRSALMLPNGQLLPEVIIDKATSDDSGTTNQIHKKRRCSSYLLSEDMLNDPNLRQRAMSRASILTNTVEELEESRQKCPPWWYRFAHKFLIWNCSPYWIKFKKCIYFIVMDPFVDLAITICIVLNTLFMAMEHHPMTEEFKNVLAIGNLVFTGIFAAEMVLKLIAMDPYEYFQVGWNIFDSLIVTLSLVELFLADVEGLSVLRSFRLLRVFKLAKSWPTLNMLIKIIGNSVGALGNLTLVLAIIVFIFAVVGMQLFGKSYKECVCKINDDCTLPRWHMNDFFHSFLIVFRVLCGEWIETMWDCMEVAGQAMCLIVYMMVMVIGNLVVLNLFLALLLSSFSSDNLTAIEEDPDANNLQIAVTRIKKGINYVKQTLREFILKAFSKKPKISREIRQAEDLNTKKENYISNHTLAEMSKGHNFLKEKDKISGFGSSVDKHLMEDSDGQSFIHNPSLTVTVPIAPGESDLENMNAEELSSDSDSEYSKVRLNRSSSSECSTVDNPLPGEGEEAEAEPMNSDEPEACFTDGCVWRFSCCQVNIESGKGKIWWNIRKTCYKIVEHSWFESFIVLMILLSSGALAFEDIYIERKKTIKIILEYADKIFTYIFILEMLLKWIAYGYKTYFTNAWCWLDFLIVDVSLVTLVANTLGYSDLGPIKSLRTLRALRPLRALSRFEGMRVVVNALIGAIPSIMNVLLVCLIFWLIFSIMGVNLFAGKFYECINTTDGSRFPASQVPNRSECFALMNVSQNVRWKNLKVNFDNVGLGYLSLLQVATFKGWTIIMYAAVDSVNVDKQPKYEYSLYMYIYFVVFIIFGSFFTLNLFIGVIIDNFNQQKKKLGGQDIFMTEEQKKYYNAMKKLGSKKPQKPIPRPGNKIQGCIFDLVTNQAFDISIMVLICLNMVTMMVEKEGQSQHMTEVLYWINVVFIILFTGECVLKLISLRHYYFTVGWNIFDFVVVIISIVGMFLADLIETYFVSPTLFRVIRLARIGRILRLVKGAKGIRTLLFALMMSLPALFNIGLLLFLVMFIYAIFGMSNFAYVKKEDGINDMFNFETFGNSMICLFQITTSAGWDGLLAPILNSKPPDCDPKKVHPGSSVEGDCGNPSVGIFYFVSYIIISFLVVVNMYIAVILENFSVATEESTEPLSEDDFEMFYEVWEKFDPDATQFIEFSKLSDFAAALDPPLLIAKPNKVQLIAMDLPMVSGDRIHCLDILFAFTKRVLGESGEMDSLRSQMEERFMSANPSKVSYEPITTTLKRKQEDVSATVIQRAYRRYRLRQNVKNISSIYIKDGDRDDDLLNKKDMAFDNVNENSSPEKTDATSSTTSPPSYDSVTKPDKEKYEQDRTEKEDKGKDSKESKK

As for `Cc1cc(C(F)F)n2ncc(C(=O)N3CCC4(CC3)Oc3ccccc3-n3c(C(F)(F)F)ccc34)c2n1` [Compound 876], the IC50 (in general, the concentration that gives 50% inhibition) was no more than 2000 nM. `Cn1ncc2c1-c1ccccc1OC21CCN(C(=O)c2cccc(F)c2F)CC1` [Compound 242]: the IC50 was greater than 5000 nM.

Consider `CCCOc1ccc(C(=O)N2CCC3(CC2)Oc2cc(F)ccc2-n2cccc23)cc1C(F)(F)F` [Compound 631], for which the IC50 was no more than 2000 nM.

Consider `Cc1cc(C(=O)N2CCC3(CC2)Oc2ccccc2-c2c3c(C)nn2C)ccc1OC(C)C` [Compound 274], for which the IC50 is no more than 2000 nM. With `COc1ccc(C(=O)N2CCC3(CC2)Oc2ccccc2-n2c(C(F)(F)F)ccc23)cc1Cl` [Compound 871] the figure was no more than 2000 nM.

Regarding `Cc1cccc(C(=O)N2CCC3(CC2)Oc2ccccc2-c2c3cnn2C)c1` [Compound 491], the concentration for half-maximal inhibition (IC50) was greater than 5000 nM. With `Cc1cccc(C(=O)N2CCC3(CC2)Oc2ccccc2-c2c3cnn2C)c1C` [Compound 797] the figure was no more than 2000 nM; with `Cn1ncc2c1-c1ccc(Cl)cc1OC21CCN(C(=O)c2cccc(F)c2OC(F)F)CC1` [Compound 108], no more than 2000 nM. Consider `CC(C)CS(=O)(=O)c1ccc(C(=O)N2CCC3(CC2)Oc2ccccc2-n2c(C(F)(F)F)ccc23)cc1` [Compound 11], for which the IC50 is no more than 2000 nM. Regarding `Cn1ncc2c1-c1ccccc1OC21CCN(C(=O)c2cccnc2Oc2ccccc2)CC1` [Compound 138], the IC50 was no more than 2000 nM. In the case of `Cc1cc(C(=O)N2CCC3(CC2)Oc2ccccc2-n2c(C(F)(F)F)ccc23)ccc1S(C)(=O)=O` [Compound 123], the IC50 is no more than 2000 nM. Consider `CCOc1ccc(C(=O)N2CCC3(CC2)Oc2ccccc2-c2c3cnn2C)cc1OC` [Compound 866], for which the IC50 was no more than 2000 nM. `Cc1cc(C(=O)N2CCC3(CC2)Oc2ccccc2-n2c(CNC=O)ccc23)ccc1OC(C)C` [Compound 677]: the IC50 is no more than 2000 nM.

`COc1cc(C(=O)N2CCC3(CC2)Oc2cc(F)ccc2-n2cccc23)ccc1C(C)(C)OC` [Compound 567]: the IC50 was no more than 2000 nM. Regarding `CC(C)(O)c1ccc(C(=O)N2CCC3(CC2)Oc2ccccc2-n2c(C(F)(F)F)ccc23)cc1F` [Compound 424], the IC50 was no more than 2000 nM.

Regarding `CC(C)(O)c1ccc(C(=O)N2CCC3(CC2)Oc2ccccc2-n2c(C#N)ccc23)cc1` [Compound 762], the IC50 is no more than 2000 nM. For the compound `Cc1ccc(C(=O)N2CCC3(CC2)Oc2ccccc2-c2c3cnn2C)cc1C` [Compound 701], the IC50 lay in the range of 2000 to 5000 nM. As for `CC(C)(CO)c1ccc(C(=O)N2CCC3(CC2)Oc2cc(Cl)ccc2-n2cccc23)cc1F` [Compound 103], the IC50 is no more than 2000 nM. On to `Cn1ncc2c1-c1cc(Cl)ccc1OC21CCN(C(=O)c2ccccc2OC(F)F)CC1` [Compound 283], for which the IC50 is no more than 2000 nM. With `CCc1ccc(C(=O)N2CCC3(CC2)Oc2ccccc2-c2sc(C)nc23)cc1OC` [Compound 257] the figure was no more than 2000 nM; with `COc1ccc(C(=O)N2CCC3(CC2)Oc2ccccc2-c2c3cnn2C)c(O)c1` [Compound 470], 2000 to 5000 nM; with `COc1ccc(F)c(C(=O)N2CCC3(CC2)Oc2cc(Cl)ccc2-n2cccc23)c1` [Compound 475], no more than 2000 nM.

`COc1ccc(C(=O)N2CCC3(CC2)Oc2ccccc2-c2c3cnn2C)c(C)c1` [Compound 774]: the IC50 was no more than 2000 nM. Regarding `Cc1nc2ccc(C(=O)N3CCC4(CC3)Oc3ccccc3-c3nn(C)cc34)cc2s1` [Compound 611], the IC50 is no more than 2000 nM. Take `Cn1cc2c(n1)-c1cc(F)ccc1OC21CCN(C(=O)c2ccc(C(C)(C)O)cc2)CC1` [Compound 486]: the IC50 was no more than 2000 nM. For `COc1cc(C(=O)N2CCC3(CC2)Oc2ccccc2-n2cccc23)ccc1OCC(N)=O` [Compound 687] the value was no more than 2000 nM.

For the compound `COc1ccc(C(=O)N2CCC3(CC2)Oc2ccccc2-c2c3cnn2C)c(OC)c1OC` [Compound 355], the IC50 is no more than 2000 nM. With `Cn1ncc2c1-c1ccccc1OC21CCN(C(=O)c2cn(C)c3cccnc23)CC1` [Compound 600] the figure was no more than 2000 nM; with `CCn1ncc2c1-c1cc(F)ccc1OC21CCN(C(=O)c2ccc(OC(C)C)c(C)c2)CC1` [Compound 267], no more than 2000 nM. In the case of `Cc1cc(C(=O)N2CCC3(CC2)Oc2ccccc2-c2c3cnn2C)ccc1OC(F)(F)F` [Compound 838], the IC50 is 2000 to 5000 nM. As for `COc1ccc(C(=O)N2CCC3(CC2)Oc2ccccc2-c2c3cnn2C)cc1C` [Compound 433], the IC50 is no more than 2000 nM.

Take `COc1cc(C(=O)N2CCC3(CC2)Oc2ccccc2-n2c(C(F)(F)F)ccc23)ccc1OCC(N)=O` [Compound 176]: the half-maximal inhibitory concentration (IC50) is no more than 2000 nM. Consider `COc1cc(C(=O)N2CCC3(CC2)Oc2ccccc2-n2cccc23)ccc1C(C)(C)OC` [Compound 399], for which the half-maximal inhibitory concentration (IC50) was no more than 2000 nM. In the case of `Cc1cc(C(=O)N2CCC3(CC2)Oc2ccccc2-n2cccc23)ccc1C(C)(C)O` [Compound 443], the IC50 was no more than 2000 nM. Take `CS(=O)(=O)c1cccc(C(=O)N2CCC3(CC2)Oc2cc(Cl)ccc2-n2cccc23)c1` [Compound 513]: the IC50 was no more than 2000 nM. For `Cc1c(F)cccc1C(=O)N1CCC2(CC1)Oc1ccccc1-c1c2cnn1C` [Compound 44], the IC50 is no more than 2000 nM. `CC(C)Oc1ccc(C(=O)N2CCC3(CC2)Oc2ccccc2-c2c3cnn2C)c(F)c1` [Compound 599]: the IC50 was no more than 2000 nM. With `COc1cc(OC(F)(F)F)ccc1C(=O)N1CCC2(CC1)Oc1cc(Cl)ccc1-n1cccc12` [Compound 116], the IC50 was no more than 2000 nM. For `Cn1ncc2c1-c1ccccc1OC21CCN(C(=O)c2cccn3ccnc23)CC1` [Compound 99] the value was no more than 2000 nM. Turning to `COCCn1ncc2c1-c1ccccc1OC21CCN(C(=O)c2ccc(C(C)(C)C)c(OC)c2)CC1` [Compound 82], the IC50 is no more than 2000 nM. With `COc1cc(C(=O)N2CCC3(CC2)Oc2ccccc2-c2nn(C)cc23)ccc1OC(C)C` [Compound 281] the figure was no more than 2000 nM.

As to `Cn1ncc2c1-c1ccccc1OC21CCN(C(=O)c2ccc(OC(F)F)cc2OC(F)F)CC1` [Compound 515], the IC50 is no more than 2000 nM. `COc1cc(C(=O)N2CCC3(CC2)Oc2cc(Cl)ccc2-n2cccc23)ccc1OCCOC(F)(F)F` [Compound 291]: the IC50 was no more than 2000 nM.

With `CC(C)Oc1ccc(C(=O)N2CCC3(CC2)Oc2ccccc2-n2c(C(F)(F)F)ccc23)cc1CO` [Compound 531], the IC50 was no more than 2000 nM.

As to `COc1ccc2[nH]cc(C(=O)N3CCC4(CC3)Oc3ccccc3-c3c4cnn3C)c2c1` [Compound 14], the IC50 was no more than 2000 nM. As for `COc1cc(C(=O)N2CCC3(CC2)Oc2ccccc2-n2c(C#N)ccc23)ccc1C(C)(C)CO` [Compound 698], the half-inhibitory concentration (IC50) is no more than 2000 nM.

For `CCn1ncc2c1-c1cc(F)ccc1OC21CCN(C(=O)c2ccccc2OC)CC1` [Compound 674], the IC50 fell in the range of 2000 to 5000 nM.

`CC[C@H](C)Oc1ccc(C(=O)N2CCC3(CC2)Oc2ccccc2-n2cccc23)cc1OC` [Compound 326]: the IC50 was no more than 2000 nM.

`CCOc1ccc(C(=O)N2CCC3(CC2)Oc2ccccc2-c2c3cnn2C)c(OCC)c1C` [Compound 13]: the IC50 was no more than 2000 nM. In the case of `Cc1cc(C(=O)N2CCC3(CC2)Oc2cc(F)ccc2-n2cccc23)ccc1OC(C)C` [Compound 38], the IC50 was no more than 2000 nM. For `CCn1ncc2c1-c1ccccc1OC21CCN(C(=O)c2cccc(F)c2OC)CC1` [Compound 154], the IC50 was no more than 2000 nM. Take `COc1cccc(Cl)c1C(=O)N1CCC2(CC1)Oc1ccccc1-c1c2cnn1C` [Compound 299]: the IC50 is greater than 5000 nM. As for `Cc1cc(OC(C)C)ccc1C(=O)N1CCC2(CC1)Oc1ccccc1-c1c2cnn1C` [Compound 158], the IC50 is no more than 2000 nM. With `CC(C)S(=O)(=O)c1ccc(C(=O)N2CCC3(CC2)Oc2cc(F)ccc2-n2c(C(F)(F)F)ccc23)cc1` [Compound 804] the figure was greater than 5000 nM; with `COc1cc(C(=O)N2CCC3(CC2)Oc2cc(Cl)ccc2-n2cccc23)ccc1F` [Compound 63], no more than 2000 nM; with `COc1cc(C(=O)N2CCC3(CC2)Oc2ccccc2-n2c(C#N)ccc23)ccc1OC(C)(C)C` [Compound 686], no more than 2000 nM. Take `COc1ccc(F)cc1C(=O)N1CCC2(CC1)Oc1cc(Cl)ccc1-n1c(C#N)ccc12` [Compound 799]: the IC50 is no more than 2000 nM.

With `COc1ccc(C(=O)N2CCC3(CC2)Oc2ccccc2-n2c(C(F)(F)F)ccc23)nc1` [Compound 438], the half-inhibitory concentration (IC50) was no more than 2000 nM.

In the case of `COCCOc1ccc(C(=O)N2CCC3(CC2)Oc2cc(Cl)ccc2-n2cccc23)cc1C` [Compound 211], the 50% inhibitory concentration (IC50) was no more than 2000 nM.

Regarding `COC(C)(C)c1ccc(C(=O)N2CCC3(CC2)Oc2cc(Cl)ccc2-n2cccc23)cc1C` [Compound 193], the half-inhibitory concentration (IC50) was no more than 2000 nM.

Regarding `Cn1ncc2c1-c1ccccc1OC21CCN(C(=O)c2cccc3ncn(C)c23)CC1` [Compound 43], the IC50 is 2000 to 5000 nM. For `CC(C)(C)c1ccc(C(=O)N2CCC3(CC2)Oc2ccccc2-n2c(C#N)ccc23)cc1` [Compound 295], the IC50 was no more than 2000 nM.

Turning to `COc1ccc(Cl)cc1C(=O)N1CCC2(CC1)Oc1ccccc1-c1c2cnn1C` [Compound 80], the IC50 is greater than 5000 nM. With `Cc1cc(C(=O)N2CCC3(CC2)Oc2ccccc2-n2c(C#N)ccc23)ccc1OCC(=O)O` [Compound 462] the figure was 2000 to 5000 nM; with `N#Cc1ccc2n1-c1ccccc1OC21CCN(C(=O)c2ccc(S(=O)(=O)C(F)F)cc2)CC1` [Compound 530], no more than 2000 nM.

For the compound `O=C(c1ccc(OC2COC2)c(F)c1)N1CCC2(CC1)Oc1cc(Cl)ccc1-n1cccc12` [Compound 777], the IC50 was no more than 2000 nM. For the compound `Cn1ncc2c1-c1ccccc1OC21CCN(C(=O)c2cccc3c2OCCC3)CC1` [Compound 841], the IC50 was no more than 2000 nM. For the compound `Cn1ncc2c1-c1ccccc1OC21CCN(C(=O)c2cccc3cnn(C)c23)CC1` [Compound 644], the IC50 was greater than 5000 nM. Consider `COc1ccc(C(=O)N2CCC3(CC2)Oc2cc(Cl)ccc2-n2cccc23)c(OC(F)(F)F)c1` [Compound 729], for which the IC50 was no more than 2000 nM. For `COCCOc1cc(C(=O)N2CCC3(CC2)Oc2cc(Cl)ccc2-n2cccc23)ccn1` [Compound 706] the value was no more than 2000 nM.
